Results published in US5179082A, “Method for blocking platelet adhesion to collagen” (Merck & Co., Inc., priority 1991, dated 1993).
Where two headings read alike, the source gives them in different places. Positions of bridges follow the written chain, without caps; N, C: chain ends. No end group written: not given here.

Legend:
[1] = system: ADP-stimulated platelet aggregation; assay: Inhibition of ADP-stimulated platelet aggregation; format: cell-based; settings: Table 1
[2] = system: platelet adhesion to collagen; assay: Inhibition of platelet adhesion to collagen-coated microtiter wells; format: cell-based
Experimental: (§1) Polystyrene 96-well microtiter plates (Costar, Cambridge, MA) are coated with […] per well of […] collagen dissolved in 5 mM acetic acid for 1 hour at room temperature followed by blocking of the non-specific cell binding sites by addition of […] of 10 mg/ml heat-denatured BSA for 1 hour. Control wells are coated with BSA only. The wells are rinsed three times with HEPES buffered saline (HBS) containing 20 mM HEPES, pH 7.4, 0.14 M NaCl, and 2 mM MgCl2. […] of washed platelets are incubated with various concentrations of polypeptide I or buffer as a control for 5 minutes at room temperature and then added to each collagen coated well and incubated at room temperature for 45 minutes. Nonadherent platelets are removed by aspiration, and the wells are rinsed three times with […] of HBS. The number of adhered platelets is determined by protein assay, using the BCA reagent and measuring the absorbance of each well at […].
(§2) Sequence ID Nos. I, II, III, IV and V were evaluated for their ability to block platelet adhesion to collagen using the assay described in Example 2 to determine inhibition of platelet adhesion to collagen. An assay similar to the assay described in Example 2, with the exception that plates are coated with fibrinogen rather than collagen, for determining inhibition of platelet binding to fibrinogen.

[3] = system: platelet adhesion to fibrinogen; assay: Inhibition of platelet adhesion to fibrinogen-coated plates; format: cell-based; design: Percent Inhibition of Adhesion, Fibrinogen, Extent: dose or concentration left out as unconfirmed; settings: for IC50: fibrinogen-coated plates
Experimental: as §1, §2

[4] = Preliminary in vivo antithrombotic studies
[5] = biological target: washed platelets
[6] = biological target: fibrinogen receptor glycoprotein IIb/IIIa

Substance	IC50 [1] [nM]	Inhibition of platelet adhesion to collagen (in words) [2]	Percent Inhibition of Adhesion, Collagen, Extent ([2]; Table 1) [%]	Decrease of control A562 values (adhered platelets) ([2]; concentration dependent, control A562 0.3 to 1.0 O.D.)	Percent Inhibition of Adhesion, Fibrinogen, Extent ([3]; Table 1, concentration not given) [%]	IC50 ([3]; Table 1) [nM]	Antithrombotic effect in vivo [4]	IC50 ([2]; Table 1, collagen-coated wells, washed platelets) [nM]	Specificity for platelet adhesion to collagen (versus fibrinogen) ([2]; comparison of Table 1 values)	Percent Inhibition of Adhesion, Fibrinogen, Extent [3] [%]	Percent inhibition of adhesion to collagen, Extent [5] [%]	Percent inhibition of adhesion to fibrinogen, Extent [6] [%]
H-ECESGPCCRNCKFLKEGTICKRARGDDMDDYCNGKTCDCPRNPHKGPAT-OH (disulfide 2-11, 7-32, 8-37, 20-39 (inferred)) [Polypeptide I, echistatin]	30	inhibit platelet adhesion to collagen	50	up to 50%	95	270	very effective antithrombotic agent					
Polypeptide V: NH2 (Ch) Ala Arg Gly Asp (Cy) Z, Z = NH2; 39 amino acids, terminal amino group at Cys 39 (ECESGPCCRNCKFLKEGTICKRARGDDMDDYCNGKTCDC-NH2; not fully specified (bridges); also: terminal modifications Ch, Cy, terminal amino group at Cys 39)	800		58			> 8000		530	most specific for platelet adhesion to collagen	55		
polypeptide I (Sequence ID No. 1), synthetic echistatin											50	95
